For this test, the target named is 52SFK (HAdV-52 short fiber knob) (human adenovirus 52, UniProt A0MK70). As to the kind of experiment: SPR with immobilized knob. It counts as binding. To be noted: oligoSia in solution.

Turning to `CC(=O)N[C@H]1[C@H]([C@H](O)[C@H](O)CO)O[C@@](O[C@H](CO)[C@@H](O)[C@@H]2OC(O)(C(=O)O)C[C@H](O)[C@H]2NC(C)=O)(C(=O)O)C[C@@H]1O` (stereo partly shown) [DP2, disialic acid], the “SPR with immobilized knob” value is “the biggest increase in affinity was shown between DP2 and DP3”.

The record behind these values is PMC5939068 (Proceedings of the National Academy of Sciences of the …, 2018).
